Laboratory results: patent publication US20170088520A1, “DEUBIQUITINASE INHIBITORS” (PharmAkea, Inc., priority 2014, published 2017)

What was measured:
Assay type in all cases: cell-based
[1] = molecular target: T1, DUB activity in cells (NCI-H929, Z138, MM.1S, A375) (Homo sapiens, UniProt Q93008); assay: HA-Ubiquitin-Vinylsulfone (HA-Ub-VS) cell labeling assay; details: compound tested at 5 μM; HA-Ub-VS labeling of USP9x in cells
T1 construct: endogenous in cells; host or cells: NCI-H929, Z138, MM.1S, A375
Description: Example B-1: HA-Ubiqutin-Vinylsulfone (HA-Ub-VS) Cell Labeling
Inhibitition of DUB activity is measured in cells (NCI-H929, Z138, MM.1S, A375) using a hemaglutinin-ubiquitin-vinylsulfone (HA-Ub-VS) labeling assay. Briefly, 1-2×10^6 cells are plated in 12-well plates in 1 ml complete growth media and 250 μl of test compound in 0.5% dimethylsulfoxide (or DMSO control) is added to each well. Plates are incubated at 37° C., 5% CO2 for 2-6 hours before cells are harvested into eppendorf tubes, washed once in PBS and resuspended in 100 μl cold lysis buffer (50 mM Tris pH 8, 150 mM NaCl, 0.5% NP-40, 2 mM phenylmethylsulfonyl fluoride and complete protease inhibitor tablet). Resupended cells are frozen on dry ice, then thawed and incubated on ice for 15 minutes. Tubes are centrifuged for 10 minutes at 14,000 rpm at 4° C. and the cleared supernatants transferred to clean tubes. […] The samples are incubated 15-60 min at 37° C. before the addition of SDS gel loading buffer. Proteins are separated by SDS-PAGE, transferred to nitrocellulose and the blot probed with anti-HA antibody and anti-β-actin antibodies. The HA and β-actin antibodies are detected using secondary antibodies coupled to IRdye 800 or IRdye 680 and visualized and quantitated using the LiCor Odyssey machine.
(§1) The following compounds were tested in the above assays at 5 μM: […]

[2] = tested on: Mcl-1 expression in cells (NCI-H929, Z138, MM.1S, A-375); assay: Analysis of Mcl-1 expression by Western blotting; details: compound tested at 5 μM; Western blot
Description: (§2) Example B-2: Analysis of Md-1 Expression and PARP Cleavage
(§3) The ability of test compounds to decrease expression of the tumor promoting protein, Mcl-1, and to induce the inactivation/cleavage of the PARP protein is evaluated in cells (NCI-H929, Z138, MM.1S, A-375) by Western blotting. Cells are plated and treated as described in the HA-Ub-VS cell labeling assay (see above). A portion of the cleared lysate (15-50 μl) is run on an SDS-polyacrylamide gel to separate proteins and then transferred to nitrocellulose. After transfer to nitrocellulose, the proteins are detected by probing the blot with anti-Mcl-1 and anti-PARP antibodies followed by secondary antibodies coupled to IRdye 800 and IRdye 680 and visualization and quantitation using a LiCor Odyssey machine. Activity of the test compound is identified as a significant decrease in Mcl-1 expression relative to the vehicle treated cells and to the appearance of a cleaved fragment of PARP relative to the vehicle-treated cells.
as §1

[3] = tested on: PARP cleavage in cells (NCI-H929, Z138, MM.1S, A-375); assay: Analysis of PARP cleavage by Western blotting; details: compound tested at 5 μM; Western blot
Description: as §2, §3, §1

T1 sequence (Q93008 whole entry): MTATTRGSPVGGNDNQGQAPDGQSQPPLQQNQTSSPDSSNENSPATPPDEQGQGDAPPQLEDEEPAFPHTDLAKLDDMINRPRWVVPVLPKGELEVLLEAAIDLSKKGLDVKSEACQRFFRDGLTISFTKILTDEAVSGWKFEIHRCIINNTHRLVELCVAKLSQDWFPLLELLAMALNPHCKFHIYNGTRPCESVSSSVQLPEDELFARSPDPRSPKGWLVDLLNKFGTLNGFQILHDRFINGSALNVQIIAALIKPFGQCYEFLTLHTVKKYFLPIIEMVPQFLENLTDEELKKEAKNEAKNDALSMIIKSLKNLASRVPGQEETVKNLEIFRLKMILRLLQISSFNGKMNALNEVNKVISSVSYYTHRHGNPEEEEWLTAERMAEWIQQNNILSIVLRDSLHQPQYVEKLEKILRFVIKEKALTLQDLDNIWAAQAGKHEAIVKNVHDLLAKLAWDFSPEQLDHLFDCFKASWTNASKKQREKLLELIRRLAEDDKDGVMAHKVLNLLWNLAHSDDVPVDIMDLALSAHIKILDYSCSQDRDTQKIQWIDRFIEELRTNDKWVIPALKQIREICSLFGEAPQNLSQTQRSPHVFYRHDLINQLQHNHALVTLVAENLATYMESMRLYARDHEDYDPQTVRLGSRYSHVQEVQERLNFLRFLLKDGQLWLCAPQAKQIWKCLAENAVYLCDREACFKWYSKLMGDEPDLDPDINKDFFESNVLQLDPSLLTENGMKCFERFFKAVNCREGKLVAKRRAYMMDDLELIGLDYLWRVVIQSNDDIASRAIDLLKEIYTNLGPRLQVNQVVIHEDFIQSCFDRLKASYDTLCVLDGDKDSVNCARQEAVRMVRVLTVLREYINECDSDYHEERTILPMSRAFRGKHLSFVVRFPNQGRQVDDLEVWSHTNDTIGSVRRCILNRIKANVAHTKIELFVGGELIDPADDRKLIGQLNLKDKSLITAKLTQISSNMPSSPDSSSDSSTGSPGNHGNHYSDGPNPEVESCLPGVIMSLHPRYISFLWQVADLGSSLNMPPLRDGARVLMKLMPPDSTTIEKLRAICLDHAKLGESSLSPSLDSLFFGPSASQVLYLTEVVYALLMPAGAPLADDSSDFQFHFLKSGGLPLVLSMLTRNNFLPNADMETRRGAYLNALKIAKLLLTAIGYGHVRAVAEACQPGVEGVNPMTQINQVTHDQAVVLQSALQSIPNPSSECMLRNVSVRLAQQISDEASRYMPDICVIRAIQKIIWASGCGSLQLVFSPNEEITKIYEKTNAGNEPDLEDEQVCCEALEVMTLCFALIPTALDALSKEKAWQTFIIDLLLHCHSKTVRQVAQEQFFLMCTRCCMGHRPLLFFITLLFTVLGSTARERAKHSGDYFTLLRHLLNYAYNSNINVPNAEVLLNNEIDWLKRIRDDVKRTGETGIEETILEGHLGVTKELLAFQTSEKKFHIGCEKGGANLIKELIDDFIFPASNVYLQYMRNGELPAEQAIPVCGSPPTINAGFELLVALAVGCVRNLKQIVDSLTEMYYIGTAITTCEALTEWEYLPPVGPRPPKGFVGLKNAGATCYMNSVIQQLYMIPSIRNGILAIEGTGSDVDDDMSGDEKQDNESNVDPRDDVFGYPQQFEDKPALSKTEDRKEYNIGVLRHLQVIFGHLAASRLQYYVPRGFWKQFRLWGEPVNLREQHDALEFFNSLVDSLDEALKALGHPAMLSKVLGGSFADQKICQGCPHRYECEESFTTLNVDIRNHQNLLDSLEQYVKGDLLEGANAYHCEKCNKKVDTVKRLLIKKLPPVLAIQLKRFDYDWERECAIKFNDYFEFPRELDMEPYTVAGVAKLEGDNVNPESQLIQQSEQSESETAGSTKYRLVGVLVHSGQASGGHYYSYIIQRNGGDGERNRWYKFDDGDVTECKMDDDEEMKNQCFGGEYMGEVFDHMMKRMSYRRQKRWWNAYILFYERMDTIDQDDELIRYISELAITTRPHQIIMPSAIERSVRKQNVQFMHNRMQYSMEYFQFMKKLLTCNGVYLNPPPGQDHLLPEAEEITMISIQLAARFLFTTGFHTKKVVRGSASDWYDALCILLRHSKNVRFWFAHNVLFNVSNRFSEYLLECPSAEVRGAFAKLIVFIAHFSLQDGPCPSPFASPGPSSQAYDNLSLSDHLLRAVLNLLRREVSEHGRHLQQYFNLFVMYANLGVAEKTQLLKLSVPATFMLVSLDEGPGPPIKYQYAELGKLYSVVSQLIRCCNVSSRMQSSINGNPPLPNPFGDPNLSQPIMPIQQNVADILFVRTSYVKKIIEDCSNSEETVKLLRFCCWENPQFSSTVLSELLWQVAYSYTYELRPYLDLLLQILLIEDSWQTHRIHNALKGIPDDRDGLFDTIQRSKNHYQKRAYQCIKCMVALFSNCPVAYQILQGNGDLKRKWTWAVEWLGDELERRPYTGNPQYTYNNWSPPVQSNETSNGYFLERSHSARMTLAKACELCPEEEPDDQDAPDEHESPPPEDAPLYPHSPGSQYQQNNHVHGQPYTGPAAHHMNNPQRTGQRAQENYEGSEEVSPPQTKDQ

| Structure (SMILES) | inhibition at 5 µM [1] | inhibition at 5 µM [2] | PARP cleavage % Inhibition [3] |
| --- | --- | --- | --- |
| N#C/C(=C\c1ccc(Br)cn1)C(=O)NC1(c2ccccc2)CCCC1 [Compound 29, (E)-3-(5-bromopyridin-2-yl)-2-cyano-N-(1-phenylcyclopentyl)acrylamide] | 50 to 75% | < 25% | A (A is ≧75% inhibition) |
| N#C/C(=C\c1ncc(Br)cc1Br)C(=O)NC1(c2ccccc2)CCCCCC1 [Compound 25, (E)-2-Cyano-3-(3,5-dibromopyridin-2-yl)-N-(1-phenylcycloheptyl)acrylamide] | ≥ 75% | ≥ 75% | A (A is ≧75% inhibition) |
| N#C/C(=C\c1cccc(-c2ccc(OCC(=O)O)cc2)n1)C(=O)NC1(c2ccccc2)CCCC1 [Compound 36] | < 25% | < 25% | D (D is <25% inhibition) |
| N#C/C(=C\c1cccc(Br)n1)C(=O)NC1(c2ccc(-c3cccnc3)cc2)CCCC1 [Compound 73, (E)-3-(6-bromopyridin-2-yl)-2-cyano-N-(1-(4-(pyridin-3-yl)phenyl)cyclopentyl)acrylamide] | ≥ 75% | ≥ 75% | A (A is ≧75% inhibition) |
| N#C/C(=C\c1cccc(Br)n1)C(=O)NC1(c2ccc(C#CC3(O)CCCC3)cc2)CCCC1 [Compound 76, (E)-3-(6-bromopyridin-2-yl)-2-cyano-N-(1-(4-((1-hydroxycyclopentyl)ethynyl)phenyl)cyclopentyl)acrylamide] | ≥ 75% | ≥ 75% | A (A is ≧75% inhibition) |
| COc1ccc(COc2ccc(C3(NC(=O)/C(C#N)=C/c4cccc(Br)n4)CCCC3)cc2)cc1 [Compound 72, (E)-3-(6-bromopyridin-2-yl)-2-cyano-N-(1-(4-((4-methoxybenzyl)oxy)phenyl)cyclopentyl)acrylamide] | 50 to 75% | ≥ 75% | A (A is ≧75% inhibition) |
| N#C/C(=C\c1cccc(Br)n1)C(=O)NC1(c2ccccc2)CCCC1 [Compound 1, (E)-3-(6-Bromopyridin-2-yl)-2-cyano-N-(1-phenylcyclopentyl)acrylamide] | ≥ 75% | ≥ 75% | A (A is ≧75% inhibition) |
| N#C/C(=C\c1cccc(Br)n1)C(=O)NC1(c2ccc(C#CCNCCO)cc2)CCCC1 [Compound 78, (E)-3-(6-bromopyridin-2-yl)-2-cyano-N-(1-(4-(3-((2-hydroxyethyl)amino)prop-1-yn-1-yl)phenyl)cyclopentyl)acrylamide] | 50 to 75% | < 25% | B (B is 50% to 75% inhibition) |
| CC(C)(C)OC(=O)c1cccc(-c2cccc(/C=C(\C#N)C(=O)NC3(c4ccccc4)CCCC3)n2)c1 [Compound 56, (E)-tert-butyl 3-(6-(2-cyano-3-oxo-3-((1-phenylcyclopentyl)amino)prop-1-en-1-yl)pyridin-2-yl)benzoate] | 50 to 75% | ≥ 75% | A (A is ≧75% inhibition) |
| N#C/C(=C\c1cccc(Br)n1)C(=O)NC1(c2cccc(CO)c2)CCCC1 [Compound 81, (E)-3-(6-bromopyridin-2-yl)-2-cyano-N-(1-(3-(hydroxymethyl)phenyl)cyclopentyl)acrylamide] | 50 to 75% | 25 to 50% | A (A is ≧75% inhibition) |
| N#C/C(=C\c1cccc(-c2ccc(CC(=O)O)cc2)n1)C(=O)NC1(c2ccccc2)CCCC1 [Compound 40] | < 25% | < 25% | C (C is 25% to 50% inhibition) |
| CC(C)(C)OC(=O)c1cccc(C2(NC(=O)/C(C#N)=C/c3ncc(Br)cc3Br)CCCC2)c1 [Compound 52, (E)-tert-butyl 3-(1-(2-cyano-3-(3,5-dibromopyridin-2-yl)acrylamido)cyclopentyl)benzoate] | < 25% | < 25% | D (D is <25% inhibition) |
